Measured values published in patent publication US20230212239A1, “INHIBITORS OF CBL AUTOINHIBITION AND RELATED METHODS” (THE HOSPITAL FOR SICK CHILDREN, priority 2020, published 2023).

T1: purified recombinant CBL protein containing the TKBD-LHR-RING region (Homo sapiens, UniProt P22681)
T1 construct: Residues 25-357 and 2-436 of CBL were cloned in frame into pGEX4T-1; GST (N); made in house
T1 sequence (P22681 2-436): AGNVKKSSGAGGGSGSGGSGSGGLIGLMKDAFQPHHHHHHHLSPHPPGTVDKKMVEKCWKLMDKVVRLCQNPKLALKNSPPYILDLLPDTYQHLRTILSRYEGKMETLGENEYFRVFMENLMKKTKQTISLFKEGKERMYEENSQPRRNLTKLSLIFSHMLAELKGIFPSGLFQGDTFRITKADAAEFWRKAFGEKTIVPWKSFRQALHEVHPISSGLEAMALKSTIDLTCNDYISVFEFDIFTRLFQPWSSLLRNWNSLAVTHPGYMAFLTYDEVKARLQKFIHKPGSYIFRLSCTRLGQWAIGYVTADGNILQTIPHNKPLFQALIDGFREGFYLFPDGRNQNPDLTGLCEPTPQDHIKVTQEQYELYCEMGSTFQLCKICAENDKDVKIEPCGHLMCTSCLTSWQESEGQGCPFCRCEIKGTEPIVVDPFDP


target: T1, purified recombinant CBL protein containing the TKBD-LHR-RING region; experiment: High-throughput in vitro autoubiquitination assay (modified ELISA-based LifeSensors assay, 384 well), hit validation; type: biochemical; settings: validation: triplicate wells; confirmed at percent activation cutoff of at least 20% in at least 2 wells
From the text: As an approach to identify novel compounds that mimic SLAP2 binding, and thus stimulate CBL E3 ligase activity, an in vitro autoubiquitination assay was developed based on a modification of a commercially available ELISA based assay (LifeSensors, Inc) and adapted to a 384 well high throughput screen (HTS) format (FIG. 13). The assay uses purified recombinant CBL protein containing the TKBD-LHR-RING region and has been optimized using reference controls; phosphorylated CBL, and CBL with or without addition of purified pSLAP2. Reaction components contained in a master mix (E1, E2, free Ub), test compound and purified CBL are free in solution allowing native protein interactions, and polyubiquitin chains are captured by an immobilized ubiquitin binding domain and quantified using an anti-ubiquitin antibody detection method.
Peptidomimetic Screen: A library of 3000 α-helix and β/γ-turn peptidomimetic compounds were screened across 10 384 well plates. A primary screen yielded 14 hits from the OICR Peptidomimetic library (0.47% hit rate). A hit was defined as any compound producing a luminescent signal at least 4 Standard Deviations from the mean of all compounds on the plate (FIG. 14).
Validation experiment: Triplicate wells of hit compounds were randomly dispersed on plates and hits were confirmed based on a percent activation cutoff of at least 20% in at least 2 wells.

Molecule	confirmed hit: CBL activation
Cc1cc2c(cc1C(=O)NCc1c(F)cccc1Cl)OCCCO2 [Hit 1, N-[(2-chloro-6-fluorophenyl)methyl]-8-methyl-3,4-dihydro-2H-1,5-benzodioxepine-7-carboxamide]	active
O=S(=O)(Nc1cccc(Br)c1)c1ccc(-c2nnc(C3CCC3)o2)s1 [Hit 2, N-(3-bromophenyl)-5-(5-cyclobutyl-1,3,4-oxadiazol-2-yl)thiophene-2-sulfonamide]	active
COc1ccc(S(=O)(=O)Nc2cccn3c(C4CCC4)nnc23)cc1Cl [Hit 3, 3-chloro-N-{3-cyclobutyl-[1,2,4]triazolo[4,3-a]pyridin-8-yl}-4-methoxybenzene-1-sulfonamide]	active
COc1ccc(CNC(=O)C2(C)CCCN(S(=O)(=O)c3cccc(C(F)(F)F)c3)C2)cc1 (stereo not drawn) [Hit 4, N-[(4-methoxyphenyl)methyl]-3-methyl-1-[3-(trifluoromethyl)benzenesulfonyl]piperidine-3-carboxamide]	active
O=S(=O)(Nc1ccc(Cl)c(C(F)(F)F)c1)c1cc(-c2noc(C3CCC3)n2)cs1 [Hit 5, N-[4-chloro-3-(trifluoromethyl)phenyl]-4-(5-cyclobutyl-1,2,4-oxadiazol-3-yl)thiophene-2-sulfonamide]	active
O=S(=O)(Nc1ccc(OC(F)(F)F)cc1)c1ccc(-c2cnc(C3CCC3)o2)s1 [Hit 6, 5-(2-cyclobutyl-1,3-oxazol-5-yl)-N-[4-(trifluoromethoxy)phenyl]thiophene-2-sulfonamide]	active
Cc1ccc(S(=O)(=O)N2C(=O)CCC2C(=O)Nc2cccc3ccccc23)cc1 (stereo not drawn) [Hit 7, 1-(4-methylbenzenesulfonyl)-N-(naphthalen-1-yl)-5-oxopyrrolidine-2-carboxamide]	active
Cc1ccc(CN2CCN(CC(=O)Nc3ccc(C(C)C)cc3)C(=O)C2=O)cc1 [Hit 8, 2-{4-[(4-methylphenyl)methyl]-2,3-dioxopiperazin-1-yl}-N-[4-(propan-2-yl)phenyl]acetamide]	active
O=C(NCC(=O)N1CCN(c2ccc(-c3noc(C4CCC4)n3)cc2)CC1)c1ccco1 [Hit 9, N-(2-{4-[4-(5-cyclobutyl-1,2,4-oxadiazol-3-yl)phenyl]piperazin-1-yl}-2-oxoethyl)furan-2-carboxamide]	active
CC(C)OCCCNC(=O)c1cnc2scc(-c3ccccc3)n2c1=O [Hit 10, 5-oxo-3-phenyl-N-[3-(propan-2-yloxy)propyl]-5H-[1,3]thiazolo[3,2-a]pyrimidine-6-carboxamide]	active

test system: CBL TKBD; experiment: Co-purification of CBL TKBD with Trx-His-SLAP2/SLAP (Duet co-expression, Ni-NTA, SDS-PAGE); type: binding; settings: low salt concentration (0.15 M NaCl)
From the text: To validate the CBL/SLAP2 binding interface, a series of mutants in a Duet co-expression vector system was generated for co-purification trials. The SLAP2 sequence was preceded by thioredoxin (Trx) and His-tag fusion proteins to allow co-purification of CBL TKBD that was bound to Trx-His-SLAP2 during the initial affinity chromatography purification step. Surface residues deemed to be important to the CBL/SLAP2 interface, but not CBL function or folding, were mutated to disrupt CBL/SLAP2 binding (FIG. 5C and FIG. 6). In our structure, SLAP2 Gly240 locates close to CBL Met269 and Ala270, such that mutation to a bulky Arg residue (G240R) could cause sterical constraints. Similarly, SLAP2 Leu241 is situated in a hydrophobic cleft composed of CBL Ala223, Trp258, and Val263; mutation to Arg (L241R) was predicted to disturb this binding pocket. Mutation of CBL Ala223 to Arg (A223R) would likewise disrupt this pocket, with CBL/SLAP2 double mutant A223R/L241R predicted to drastically disturb binding through sterical constraints and charge repulsion. (For clarity, CBL mutations herein are indicated in italics, SLAP2 in regular font.) Similarly, single or double mutation of CBL Ser226 or SLAP2 Ser244, whose side chain hydroxyl groups are in close proximity to one another, to charged Glu residues (S226E and S244E) was anticipated to interfere with CBL/SLAP2 binding. Finally, given that SLAP2 binds CBL as an α-helix, mutation of Leu245, located in the center of this α-helix, to proline (L245P) was expected to interrupt the helical structure and thus prevent SLAP2 binding. […] However, double mutation of the CBL/SLAP2 interface (A223R/L241R and S226E/S244E; FIG. 5D, lower panel) was not tolerated, even at low salt concentration.
For co-purification of CBL and SLAP2/SLAP, Duet-His-hSLAP2-CBL 29-261 Δ198-229 and 29-254 Δ198-229, Duet-His-Δlinker-hSLAP2-CBL WT and point mutants, and Duet-His-mSLAP-CBL WT and point mutants were overexpressed in E. coli BL-21 as above or TKB1 competent cells (Stratagene) as per manufacturer’s instructions, and cells harvested as above (except 100 mL of LB, overnight at 16-18° C., and 0.35-0.5 mM IPTG induction). Cell pellets were resuspended in either high or low salt (as for high salt except 25 mM HEPEs pH 7.5, 150 mM NaCl) lysis buffer and purified as above on Ni-NTA agarose (Qiagen) with wash buffer (25 mM HEPEs pH 7.5, 150 mM NaCl, 2% glycerol, 20 mM imidazole, 10 mM βME). Bead slurry was mixed with SDS 2X loading buffer (125 mM Tris pH 6.8, 4% SDS, 20% glycerol, 0.715 M βME, bromophenol blue), boiled, and analyzed by 10 or 12.5% SDS-PAGE, stained with Coomassie blue.

Molecule	CBL TKBD co-purification
SLAP L241R: mouse SLAP interface mutant analogous to SLAP2 L241R (protein, UniProt Q60898 2-281, looked up, variant L241R) Src-like-adapter: GNSMKSTSPPSERPLSSSEGLESDFLAVLTDYPSPDISPPIFRRGEKLRVISDEGGWWKAISLSTGRESYIPGICVARVYHGWLFEGLGRDKAEELLQLPDTKIGSFMIRESETKKGFYSLSVRHRQVKHYRIFRLPNNWYYISPRLTFQCLEDLVTHYSEVADGLCCVLTTPCLAQNIPAPTSHPSPCTSPGSPVTLRQKTFDWKRVSRLQEGSEGAENPLRVDESLFSYGLRESIASYRSLTGDDSSSFDRKKKSLSLMYTGSKRKSSFFSAPQYFED	abrogated CBL co-purification
SLAP2 L241R: SLAP2 interface point mutant Leu241 to Arg (protein, left off: large carriers; small tags and cut ends, SLAP2 interface point mutant Leu241 to Arg) EAERSKATAVALGSFPAGGPAELSLRLGEPLTIVSEDGDWWTVLSEVSGREYNIPSVHVAKVSHGWLYEGLSREKAEELLLLPGNPGGAFLIRESQTRRGSYSLSVRLSRPASWDRIRHYRIHCLDNGWLYISPRLTFPSLQALVDHYSELADDICCLLKEPCVLQRAGPLPGKDIPLPVTVQRTPLNWKELDSSLLFSEAATGEESLLSEGRRESLSFYISLNDEAVSLDDA	abrogated CBL co-purification
SLAP2 L245P: SLAP2 point mutant Leu245 to proline, expected to interrupt the helix (protein, left off: large carriers; small tags and cut ends, SLAP2 point mutant Leu245 to proline, expected to interrupt the helix) EAERSKATAVALGSFPAGGPAELSLRLGEPLTIVSEDGDWWTVLSEVSGREYNIPSVHVAKVSHGWLYEGLSREKAEELLLLPGNPGGAFLIRESQTRRGSYSLSVRLSRPASWDRIRHYRIHCLDNGWLYISPRLTFPSLQALVDHYSELADDICCLLKEPCVLQRAGPLPGKDIPLPVTVQRTPLNWKELDSSLLFSEAATGEESLLSEGLRESPSFYISLNDEAVSLDDA	abrogated CBL co-purification
SLAP2 G240R: SLAP2 interface point mutant Gly240 to Arg (protein, left off: large carriers; small tags and cut ends, SLAP2 interface point mutant Gly240 to Arg) EAERSKATAVALGSFPAGGPAELSLRLGEPLTIVSEDGDWWTVLSEVSGREYNIPSVHVAKVSHGWLYEGLSREKAEELLLLPGNPGGAFLIRESQTRRGSYSLSVRLSRPASWDRIRHYRIHCLDNGWLYISPRLTFPSLQALVDHYSELADDICCLLKEPCVLQRAGPLPGKDIPLPVTVQRTPLNWKELDSSLLFSEAATGEESLLSERLRESLSFYISLNDEAVSLDDA	tolerated
SLAP2 S244E: SLAP2 interface point mutant Ser244 to Glu (protein, left off: large carriers; small tags and cut ends, SLAP2 interface point mutant Ser244 to Glu) EAERSKATAVALGSFPAGGPAELSLRLGEPLTIVSEDGDWWTVLSEVSGREYNIPSVHVAKVSHGWLYEGLSREKAEELLLLPGNPGGAFLIRESQTRRGSYSLSVRLSRPASWDRIRHYRIHCLDNGWLYISPRLTFPSLQALVDHYSELADDICCLLKEPCVLQRAGPLPGKDIPLPVTVQRTPLNWKELDSSLLFSEAATGEESLLSEGLREELSFYISLNDEAVSLDDA	tolerated
